Assay results taken from patent US9517204B2, “Pharmaceutical composition for inhalation” (SHIONOGI & CO., LTD., priority 2011, dated 2016).
Like-named read-outs stand apart in the source and are kept apart here.

What was measured:
[1] = Reactive oxygen species (ROS) assay, photoreactivity testing; assay type: physicochemical
Source text: This assay was established to monitor the generation of ROS, such as singlet oxygen and superoxide, from photoirradiated chemicals, and ROS generation would be indicative of the photochemical reactivity of tested chemicals.
In contrast, 8-methoxypsoralen (MOP) is known as a phototoxic and photoreactive chemical. Although 8-MOP slightly exceeded pirfenidone in ROS generation, both chemicals were identified to be photoreactive, as shown in FIG. 3 (A). When such photoreactivity and photoirritability are taken into consideration, pirfenidone can be said to raise concerns about photostability.

Photostability testing = assay type: physicochemical; details: simulated sunlight (250 W/m^2)
Method: Here, in respirable formulation of pirfenidone, both liquid and dry powder formulations can be considered in theory. Then, to clarify the photochemical properties in more detail, photostability testing was carried out. […] In general, photosensitive chemicals in a solution state are far more prone to photodegradation than solid samples due to the high permeability of light and increased mobility of photochemically excited molecules and reactive species. From this, taken together with the result shown in FIG. 3 (B), dry powder formulation, rather than liquid formulation, is preferable as a respirable formulation of pirfenidone.

skin = assay: Phototoxic reaction in oral administration of pirfenidone (skin color, color difference meter); assay type: in vivo, rats; details: for change of skin color compared to the control group: black light irradiation
Method: Hair of rats were carefully shaved by hair clipper, and pirfenidone was administered orally to the rats (160 mg/kg or 30 mg/kg), and the rats were irradiated with a black light. Colors of the skin before and after the light irradiation were evaluated with a color difference meter.

[2] = Pharmacokinetics (1): plasma and tissues after oral and intratracheal administration; assay type: in vivo, rats; details: for Cmax / MRT / half-life / AUC(0-inf): rat
Method: However, the possibility of risk reduction of photodermatosis is not clear. In general, since drug-induced photodermatosis appear in the skin and eyes, the specific distribution of drug molecules in the skin and/or eyes could be a key consideration for evaluating the photodermatosis risk. Then, in order to verify the photosafety of the formulation 1, a pharmacokinetic study was undertaken after intratracheal administration of the formulation 1 at a pharmacologically effective dose (1 mg/kg). Additionally, since in the oral administration, both pharmaceutically effective and phototoxic dose (160 mg/kg) and pharmaceutically non-effective and non-phototoxic dose (30 mg/kg) are known, pharmacokinetic parameters were obtained after oral administration at both doses. Concentration-time curves of pirfenidone in the plasma, skin, lung, and eyes were obtained by UPLC/ESI-MS analysis after intratracheal and oral administrations. After oral administration of pirfenidone, plasma and lung concentrations of pirfenidone immediately reached the Cmax within 5 min and these concentrations decreased steadily with half lives of ca. 0.3-0.8 h.

[3] = Pharmacokinetics 2: transmigration of pirfenidone to tissue after single-dose administration; set-up: species or system rats; details: rat, in vivo, po, 160 mg/kg
Method: Similarly to Example 5, single-dose administrations of pirfenidone orally and the formulation 1 by inhalation were performed in rats, and the amount of transmigration of pirfenidone to each tissue was monitored by UPLC/ESI-MS. When compared in dose (160 mg/kg) having an anti-inflammatory activity, while the amount of skin-transmigration of pirfenidone in 1 hour after administration was about 50 ng/g-tissue via inhalation (1 mg/kg), the amount via oral administration (160 mg/kg) was about 20 μg/g-tissue. From this, while the amount of medication in inhalation is 1/160 in the case of oral administration, the amount of skin transmigration in inhalation decreases to 1/400 of oral formulation. […] Thus, the respirable formulation of the present invention has an excellent effect.

[4] = Pharmacokinetics (3): skin transmigration in repeated-dose administrations; assay type: in vivo
Method: Results of having monitored the amount of skin transmigration of pirfenidone in repeated-dose administrations by oral and inhalation are shown in FIG. 8. Although a temporary elevation of the pirfenidone concentration in the skin was observed by pirfenidone oral administration (30, 160 mg/kg) also in repeated-dose administrations in every 12 hours, the elevation disappeared in about 6 hours after administration. […] From this, the systemic side effect is considered to be avoidable even when the respirable formulation is used repeatedly.

[5] = patients who have taken the oral agent; cited from earlier work
[6] = 30 mg/kg oral, UV +, after treatment
[7] = 30 mg/kg oral, UV +, initial value
[8] = 30 mg/kg oral, UV −, after treatment
[9] = 30 mg/kg oral, UV −, initial value
[10] = 160 mg/kg oral, UV +, after treatment
[11] = 160 mg/kg oral, UV +, initial value
[12] = 160 mg/kg oral, UV −, after treatment
[13] = 160 mg/kg oral, UV −, initial value

**Q.** With `Cc1ccc(=O)n(-c2ccccc2)c1` [pirfenidone] as the molecule, how does the “ROS generation (singlet oxygen, superoxide), photoreactivity” value (shortened to “ROS generation”) [1] read?
**A.** photoreactive

**Q.** And the degradation (Photostability testing; powder)?
**A.** no significant degradation

**Q.** What about the “apparent first-order degradation rate” value (Photostability testing; solution) of the same molecule?
**A.** 0.31 ± 0.03 h⁻¹

**Q.** What about the “ΔE, evaluation of color change” value (skin; 30 mg/kg oral, UV +) of the same molecule?
**A.** 2.40 ± 0.20

**Q.** What about the “L*” value (skin; [6]) of the same molecule?
**A.** 72.26

**Q.** What about the “a*” value (skin; [6]) of the same molecule?
**A.** 2.81

**Q.** What about the “b*” value (skin; [6]) of the same molecule?
**A.** 5.72

**Q.** And the “L*” value (skin; [7])?
**A.** 72.90

**Q.** What about the “a*” value (skin; [7]) of the same molecule?
**A.** 1.27

**Q.** And the “b*” value (skin; [7])?
**A.** 4.14

**Q.** What about the “ΔE, evaluation of color change” value (skin; 30 mg/kg oral, UV −) of the same molecule?
**A.** 1.47 ± 0.27

**Q.** What about the “L*” value (skin; [8]) of the same molecule?
**A.** 71.56

**Q.** And the “a*” value (skin; [8])?
**A.** 1.54

**Q.** What about the “b*” value (skin; [8]) of the same molecule?
**A.** −0.36

**Q.** And the “L*” value (skin; [9])?
**A.** 70.16

**Q.** And the “a*” value (skin; [9])?
**A.** 1.19

**Q.** And the “b*” value (skin; [9])?
**A.** −0.18

**Q.** And the “change of skin color compared to the control group” value (skin; 30 mg/kg oral)?
**A.** significant change was not observed

**Q.** What about the photodermatosis (skin; 30 mg/kg orally to rat) of the same molecule?
**A.** photodermatosis was not caused

**Q.** And the “ΔE, evaluation of color change” value (skin; 160 mg/kg oral, UV +)?
**A.** 3.97 ± 0.59

**Q.** And the “L*” value (skin; [10])?
**A.** 72.35

**Q.** And the “a*” value (skin; [10])?
**A.** 2.06

**Q.** And the “b*” value (skin; [10])?
**A.** 9.17

**Q.** And the “L*” value (skin; [11])?
**A.** 71.05

**Q.** And the “a*” value (skin; [11])?
**A.** 0.89

**Q.** What about the “b*” value (skin; [11]) of the same molecule?
**A.** 5.67

**Q.** What about the “ΔE, evaluation of color change” value (skin; 160 mg/kg oral, UV −) of the same molecule?
**A.** 1.69 ± 0.24

**Q.** And the “L*” value (skin; [12])?
**A.** 71.04

**Q.** And the “a*” value (skin; [12])?
**A.** −1.04

**Q.** And the “b*” value (skin; [12])?
**A.** 4.88

**Q.** And the “L*” value (skin; [13])?
**A.** 70.59

**Q.** What about the “a*” value (skin; [13]) of the same molecule?
**A.** 0.09

**Q.** What about the “b*” value (skin; [13]) of the same molecule?
**A.** 3.67

**Q.** What about the “change of skin color compared to the control group” value (skin; 160 mg/kg oral) of the same molecule?
**A.** Change of skin color was intentionally observed

**Q.** And the “AUC0→∞” value ([2]; eyes, rats, 30 mg/kg, p.o.)?
**A.** 8.33 ± 0.39 h · μg/g tissue

**Q.** What about the “AUC0→∞” value ([2]; eyes, rats, 160 mg/kg, p.o.) of the same molecule?
**A.** 58.8 ± 1.3 h · μg/g tissue

**Q.** And the “AUC0→∞” value ([2]; lung, rats, 30 mg/kg, p.o.)?
**A.** 6.45 ± 0.43 h · μg/g tissue

**Q.** What about the “AUC0→∞” value ([2]; lung, rats, 160 mg/kg, p.o.) of the same molecule?
**A.** 52.1 ± 1.0 h · μg/g tissue

**Q.** What about the Cmax ([2]; po, eyes, rats, 30 mg/kg) of the same molecule?
**A.** 3950 ± 300 ng/g

**Q.** And the MRT ([2]; po, eyes, rats, 30 mg/kg)?
**A.** 1.06 ± 0.13 h

**Q.** What about the half-life ([2]; po, eyes, rats, 30 mg/kg, p.o., read-out: t1/2 (converted)) of the same molecule?
**A.** 0.668 ± 0.18 h

**Q.** What about the Cmax ([2]; po, eyes, rats, 160 mg/kg) of the same molecule?
**A.** 26000 ± 2600 ng/g

**Q.** What about the MRT ([2]; po, eyes, rats, 160 mg/kg) of the same molecule?
**A.** 1.93 ± 0.051 h

**Q.** What about the half-life ([2]; po, eyes, rats, 160 mg/kg, p.o., read-out: t1/2 (converted)) of the same molecule?
**A.** 1.06 ± 0.27 h

**Q.** And the Cmax ([2]; po, lung, rats, 30 mg/kg)?
**A.** 6460 ± 690 ng/g

**Q.** What about the MRT ([2]; po, lung, rats, 30 mg/kg) of the same molecule?
**A.** 0.787 ± 0.16 h

**Q.** What about the half-life ([2]; po, lung, rats, 30 mg/kg, p.o., read-out: t1/2 (converted)) of the same molecule?
**A.** 0.799 ± 0.24 h

**Q.** What about the Cmax ([2]; po, lung, rats, 160 mg/kg) of the same molecule?
**A.** 37600 ± 5700 ng/g

**Q.** What about the MRT ([2]; po, lung, rats, 160 mg/kg) of the same molecule?
**A.** 1.32 ± 0.041 h

**Q.** What about the half-life ([2]; po, lung, rats, 160 mg/kg, p.o., read-out: t1/2 (converted)) of the same molecule?
**A.** 0.766 ± 0.16 h

**Q.** What about the AUC(0-inf) ([2]; po, plasma, rats, 30 mg/kg) of the same molecule?
**A.** 14100 ± 920 ng·h/mL

**Q.** And the Cmax ([2]; po, plasma, rats, 30 mg/kg)?
**A.** 19.7 ± 0.93 µg/mL

**Q.** What about the MRT ([2]; po, plasma, rats, 30 mg/kg) of the same molecule?
**A.** 0.667 ± 0.094 h

**Q.** What about the half-life ([2]; po, plasma, rats, 30 mg/kg, p.o., read-out: t1/2 (converted)) of the same molecule?
**A.** 0.33 ± 0.02 h

**Q.** And the AUC(0-inf) ([2]; po, plasma, rats, 160 mg/kg)?
**A.** 152000 ± 10000 ng·h/mL

**Q.** And the Cmax ([2]; po, plasma, rats, 160 mg/kg)?
**A.** 135 ± 11 µg/mL

**Q.** What about the MRT ([2]; po, plasma, rats, 160 mg/kg) of the same molecule?
**A.** 1.05 ± 0.075 h

**Q.** What about the half-life ([2]; po, plasma, rats, 160 mg/kg, p.o., read-out: t1/2 (converted)) of the same molecule?
**A.** 0.53 ± 0.03 h

**Q.** And the Cmax ([2]; po, skin, rats, 30 mg/kg)?
**A.** 8160 ± 470 ng/g

**Q.** And the MRT ([2]; po, skin, rats, 30 mg/kg)?
**A.** 1.14 ± 0.12 h

**Q.** And the half-life ([2]; po, skin, rats, 30 mg/kg, p.o., read-out: t1/2 (converted))?
**A.** 1.07 ± 0.28 h

**Q.** And the Cmax ([2]; po, skin, rats, 160 mg/kg)?
**A.** 32900 ± 2600 ng/g

**Q.** What about the MRT ([2]; po, skin, rats, 160 mg/kg) of the same molecule?
**A.** 1.7 ± 0.043 h

**Q.** What about the half-life ([2]; po, skin, rats, 160 mg/kg, p.o., read-out: t1/2 (converted)) of the same molecule?
**A.** 1.06 ± 0.24 h

**Q.** What about the half-life ([2]; plasma and lung, oral administration (30 and 160 mg/kg), read-out: half lives) of the same molecule?
**A.** 0.3 to 0.8 h

**Q.** And the half-life ([2]; skin and eye, after oral dosing, read-out: half-life of elimination phase)?
**A.** 0.7 to 1.1 h

**Q.** What about the “time of reaching maximum levels” value ([2]; skin and eye, after oral dosing) of the same molecule?
**A.** ca. 0.5 h

**Q.** And the “AUC0→∞” value ([2]; skin, rats, 30 mg/kg, p.o.)?
**A.** 11.5 ± 0.51 h · μg/g tissue

**Q.** And the “AUC0→∞” value ([2]; skin, rats, 160 mg/kg, p.o.)?
**A.** 68.0 ± 1.4 h · μg/g tissue

**Q.** What about the concentration at 1 h [3] of the same molecule?
**A.** ~20000 ng/g

**Q.** What about the “time after administration at which the elevation of skin concentration disappeared” value ([4]; oral 30, 160 mg/kg, repeated-dose every 12 hours) of the same molecule?
**A.** about 6 hours

**Q.** What about the accumulation in skin ([4]; oral, repeated-dose administrations) of the same molecule?
**A.** did not show any accumulation trend

**Q.** And the “expression frequency of drug-induced photodermatosis” value [5]?
**A.** about 60%

**Q.** For `COc1c2occc2cc2ccc(=O)oc12` [Formulation 8-MOP, 8-methoxypsoralen], which “ROS generation” value ([1]; exposed to simulated sunlight (250 W/m^2)) is on record?
**A.** photoreactive

**Q.** For `COc1cc(O)c(C(=O)c2ccccc2)cc1S(=O)(=O)O` [Sulisobenzone, sulisobenzone], which “ROS generation” value [1] is on record?
**A.** no ability to generate ROS
